This assay addresses Trypanosoma brucei hexokinase 1 (TbHK1) (Trypanosoma brucei, UniProt Q38C42). The assay is described as follows: G6PDH-coupled hexokinase assay with recombinant enzyme. The assay is classed as biochemical.

What is called Ki is a measure of affinity in units of concentration, obtained from inhibition or displacement.

Regarding `O=c1c(O)c(-c2ccc(O)c(O)c2)oc2cc(O)cc(O)c12` [QCN, 3,3′,4′,5,7-pentahydroxyflavone], the Ki was found to be 2.9 ± 0.9 µM.

Source of the values: PMC3025057 (Experimental parasitology, 2010).
